Reference: patent US11053281B2, “Peptoid affinity ligands” (MIKE-ANN, LLC, priority 2016, dated 2021)
Where two headings read alike, the source gives them in different places. *1 amine or outer side, *2 acyl side, *3 side chain or, on linkers, in order; H or OH if unused. Where a SMILES comes first, the peptide text is derived from it. [ ]: non-standard residue; d: D form. Gly(N(CH2)2(3-indolyl)) = O=C(O)CNCCc1c[nH]c2ccccc12; N(4-hydroxyphenethyl)Gly = O=C(O)CNCCc1ccc(O)cc1; Gly(N-(CH2)3-guanidino) = N=C(N)NCCCNCC(=O)O; NGly(CH2(3-pyridyl)) = O=C(O)CNCc1cccnc1; N(CH2CH2COOH)Gly = O=C(O)CCNCC(=O)O; Gly(N(CH2)3NH2) = NCCCNCC(=O)O; Cysteamide = C(CS[*:3])N[*:1]; NPrGly = CCCNCC(=O)O; Nme = COCCNCC(=O)O; Sar = CNCC(=O)O

Test system: polyclonal human IgG
Assay: Adsorption isotherm of peptoid affinity resins against polyclonal human IgG
Type: binding
Parameters: Qmax: unit not given here
Conditions: for Qmax: maximum capacity (qmax) of resin from isotherm fit; for Kd: peptoid ligand conjugated to chromatographic resin, IgG in PBS, hyperbola fit of isotherm, Kd given in molar, read-out: Kd x 10^−6
Description: The affinity for the peptoid-resin combinations was determined by measuring the adsorption isotherm of each resin against polyclonal human IgG (Pakimna et al., J Applied Sci., 12(11): 1136-1141, 2012). Briefly, 0.050 mL of 50% resin slurry was pipetted into 6 individual wells of a 96-well filter plate (0.45 micron, PVDF, Harvard Apparatus). The resin was washed with 2×250 μL PBS using a vacuum manifold. To an individual well, 0.25 mL of a human polyclonal IgG solution at different concentrations (10, 5, 2.5, 1.25, 0.625, and 0.3125 mg/mL) was added. The resin/IgG suspension was agitated gently on a rocking table for 30 minutes. The fluid was then collected via vacuum, and the resin was washed with 0.25 mL of PBS. The filtrate and wash were then analyzed by the BCA assay to determine the residual IgG concentration relative to the starting concentration of the solution.
The equilibrium concentrations were then used to determine the capacity of the resin at each IgG concentration using the following formula: q=Volumesample×(Initial Concentration−Equilibrium Concentration)/Volumeresin
A plot of q versus equilibrium concentration was generated and the data fit with a hyperbola to determine the affinity constant (Kd) and the maximum capacity (qmax) according to the below formula, where C=the equilibrium concentration of antibody in solution: q=qmax×C/(kd+C) Typical adsorption isotherm is shown in FIG. 2. Tabulated Kd and qmax data is found in Table 2.

Row | Kd (Table 3) | Kd (Table 2) | Compound | Qmax (Table 3) | Qmax (Table 2)
1 |  | 2.7 µM | COCCNCC(=O)N(CCc1c[nH]c2ccccc12)CC(=O)N(CCc1c[nH]c2ccccc12)CC(=O)N(CCCN)CC(=O)N(CC(=O)N(CCC(=O)O)CC(=O)N(C)CC(=O)NCCS)Cc1cccnc1 [Ligand 12-73-2] (H-[Nme][Gly(N(CH2)2(3-indolyl))][Gly(N(CH2)2(3-indolyl))][Gly(N(CH2)3NH2)][NGly(CH2(3-pyridyl))][N(CH2CH2COOH)Gly][Sar]-Cysteamide) |  | 74
2 | 4.8 µM |  | COCCN(CC(=O)N(CC(=O)NCCS)Cc1cccnc1)C(=O)CN(CCCN)C(=O)CNCCc1c[nH]c2ccccc12 [Ligand 16-81-7] (H-[Gly(N(CH2)2(3-indolyl))][Gly(N(CH2)3NH2)][Nme][NGly(CH2(3-pyridyl))]-Cysteamide) | 39 | 
3 | 18 µM |  | CCCN(CC(=O)N(CCCN)CC(=O)N(CC(=O)N(CCC(=O)O)CC(=O)N(C)CC(=O)NCCS)Cc1cccnc1)C(=O)CN(CCC(=O)O)C(=O)CNCc1cccnc1 [Ligand 16-75-1] (H-[NGly(CH2(3-pyridyl))][N(CH2CH2COOH)Gly][NPrGly][Gly(N(CH2)3NH2)][NGly(CH2(3-pyridyl))][N(CH2CH2COOH)Gly][Sar]-Cysteamide) | 33 | 
4 |  | 5.7 µM | CCCN(CC(=O)N(CCc1c[nH]c2ccccc12)CC(=O)NCCS)C(=O)CN(CCc1c[nH]c2ccccc12)C(=O)CN(C)C(=O)CN(CCc1c[nH]c2ccccc12)C(=O)CN(Cc1cccnc1)C(=O)CNCCCNC(=N)N [Ligand 12-76-4] (H-[Gly(N-(CH2)3-guanidino)][NGly(CH2(3-pyridyl))][Gly(N(CH2)2(3-indolyl))][Sar][Gly(N(CH2)2(3-indolyl))][NPrGly][Gly(N(CH2)2(3-indolyl))]-Cysteamide) |  | 89
5 | 3.6 µM |  | COCCN(CC(=O)N(CCCN)CC(=O)N(CCc1c[nH]c2ccccc12)CC(=O)NCCS)C(=O)CNCc1cccnc1 [Ligand 16-81-6] (H-[NGly(CH2(3-pyridyl))][Nme][Gly(N(CH2)3NH2)][Gly(N(CH2)2(3-indolyl))]-Cysteamide) | 45 | 
6 |  | 3.9 µM | CCCN(CC(=O)N(CCc1c[nH]c2ccccc12)CC(=O)NCCS)C(=O)CN(CCc1c[nH]c2ccccc12)C(=O)CN(C)C(=O)CN(CCc1c[nH]c2ccccc12)C(=O)CN(Cc1cccnc1)C(=O)CNCCCN [Ligand 12-73-4] (H-[Gly(N(CH2)3NH2)][NGly(CH2(3-pyridyl))][Gly(N(CH2)2(3-indolyl))][Sar][Gly(N(CH2)2(3-indolyl))][NPrGly][Gly(N(CH2)2(3-indolyl))]-Cysteamide) |  | 72

The remaining lines, values behind:

Row | Compound | Kd (Table 3) | Kd (Table 2) | Qmax (Table 3) | Qmax (Table 2)
7 | O=C(CN(CCc1c[nH]c2ccccc12)C(=O)CN(Cc1cccnc1)C(=O)CN(CCc1c[nH]c2ccccc12)C(=O)CNCc1cccnc1)NCCS [Ligand 16-82-2] | 2.5 µM |  | 41 | 
8 | CN(CC(=O)NCCS)C(=O)CN(CCC(=O)O)C(=O)CN(Cc1cccnc1)C(=O)CN(CCCNC(=N)N)C(=O)CN(CCCNC(=N)N)C(=O)CN(CCc1ccc(O)cc1)C(=O)CNCCc1ccc(O)cc1 [Ligand 18-28-1] (H-[N(4-hydroxyphenethyl)Gly][N(4-hydroxyphenethyl)Gly][Gly(N-(CH2)3-guanidino)][Gly(N-(CH2)3-guanidino)][NGly(CH2(3-pyridyl))][N(CH2CH2COOH)Gly][Sar]-Cysteamide) |  | 7.7 µM |  | 41
9 | NC(=O)NCCCN(CC(=O)N(CCc1c[nH]c2ccccc12)CC(=O)N(CC(=O)NCCS)Cc1cccnc1)C(=O)CNCCc1c[nH]c2ccccc12 [Ligand 16-75-5] |  | 4.3 µM |  | 44
10 | COCCN(CC(=O)NCCS)C(=O)CN(CCc1c[nH]c2ccccc12)C(=O)CN(CCc1c[nH]c2ccccc12)C(=O)CNCCCN [Ligand 16-77-3] (H-[Gly(N(CH2)3NH2)][Gly(N(CH2)2(3-indolyl))][Gly(N(CH2)2(3-indolyl))][Nme]-Cysteamide) |  | 4 µM |  | 47
